Reference: patent publication US10633419B2, “Immunomodulators” (BRISTOL-MYERS SQUIBB COMPANY, priority 2014, dated 2020)
Starred links: 1 amine or outer side, 2 acyl side, 3 side chain; linkers in the order of their positions; H or OH if unused. Positions of bridges follow the written chain, without caps; N, C: chain ends. Non-standard residues stand in square brackets, D forms with d. Residues, ends and D or L forms follow the SMILES beside them. ξ: configuration not given here. *: point of attachment. X12 = O=C(O)CCCCCCCCCCCCCCCCCCC(=O)N[C@@H](CCC(=O)NCCCOCCOCCOCCCN*)C(=O)O; X6 = O=C(O)CCCCCCCCCCCCCCCCC(=O)N[C@@H](CCC(=O)NCCCOCCOCCOCCCN*)C(=O)O; X18 = O=C(O)CCCCCCCCCCCCCCC(=O)N[C@@H](CC(=O)NCCCOCCOCCOCCCN*)C(=O)O; Ala(1-CH2COOH-inden-3-yl) = N[C@@H](CC1=CC(CC(=O)O)c2ccccc21)C(=O)O; Trp(1-CH2COOH) = N[C@@H](Cc1cn(CC(=O)O)c2ccccc12)C(=O)O; X5 = O=C(O)CCCCCCCCCCCCCCCCC(=O)NCCCOCCOCCOCCCN*; Gly(octyl) = CCCCCCCC[C@H](N)C(=O)O; X19 = O=C(C1C[C@H](O)CN1[*:1])[*:2]; ξPro(4R-OH) = O=C(O)C1C[C@@H](O)CN1; Palmitoyl = CCCCCCCCCCCCCCCC(=O)*; Hyp = O=C(O)[C@@H]1C[C@@H](O)CN1; NMeNle = CCCC[C@H](NC)C(=O)O; Pip = O=C(O)[C@@H]1CCCCN1; NMeA = CN[C@@H](C)C(=O)O; Pra = C#CC[C@H](N)C(=O)O; Aun = NCCCCCCCCCCC(=O)O; Dab = NCC[C@H](N)C(=O)O; Dap = NC[C@H](N)C(=O)O

Target: T1, PD-L1 (Homo sapiens, UniProt Q9NZQ7)
T1 construct: hPDL1(19-239)-TVMV-His; made in house; host or cells: HEK293T
Assay: PD-1/PD-L1 Homogenous Time-Resolved Fluorescence (HTRF) binding assay (PD-1-Ig/PD-L1-His)
Details: inhibition of PD-1-Ig binding to PD-L1-TVMV-His; value given as number; read-out: HTRF IC50
How it was run: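 HTRF competition in dPBS with 0.1% BSA and 0.05% Tween-20: 20 nM PD-1-Ig added after 15 min compound pre-incubation with 10 nM PD-L1-His, then another 15 min. Signal (665/620 nm) after 30 min with APC anti-His (20 nM) and Eu anti-Ig (1 nM).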

T1 sequence (Q9NZQ7 with tags, fused parts or gaps): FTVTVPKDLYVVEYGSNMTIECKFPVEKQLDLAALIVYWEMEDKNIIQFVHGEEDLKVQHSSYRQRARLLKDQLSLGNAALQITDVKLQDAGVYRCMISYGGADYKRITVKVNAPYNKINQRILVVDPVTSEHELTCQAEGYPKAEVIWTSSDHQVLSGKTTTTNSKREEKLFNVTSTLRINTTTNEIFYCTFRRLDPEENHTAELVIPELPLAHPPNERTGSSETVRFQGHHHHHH

| IC50 | SMILES |
| --- | --- |
| 1570 nM | CCCC[C@H]1C(=O)N(C)[C@@H](CCCC)C(=O)N[C@@H](CC(C)C)C(=O)N[C@H](C(=O)NCCCOCCOCCOCCCNC(=O)CCCCCCCCCCCCCCCCC(=O)O)CSCC(=O)N[C@@H](Cc2ccc(O)cc2)C(=O)N(C)[C@@H](C)C(=O)N[C@@H](CC(N)=O)C(=O)N2CCC[C@H]2C(=O)N[C@@H](CN)C(=O)N[C@@H](CCC(N)=O)C(=O)N2C[C@H](O)C[C@H]2C(=O)N[C@@H](Cc2c[nH]c3ccccc23)C(=O)N[C@@H](CO)C(=O)N[C@@H](Cc2cn(CC(=O)O)c3ccccc23)C(=O)N1C [Example 11133] ({CH2CO}-Y[NMeA]NP[Dap]Q[Hyp]WS[Trp(1-CH2COOH)][NMeNle][NMeNle]LC-X5; thioether N-14) |

Same assay, conditions: inhibition of PD-1-Ig binding to PD-L1-TVMV-His; value given as range class; read-out: HTRF IC50

| SMILES | IC50 |
| --- | --- |
| CCCC[C@H]1C(=O)N(C)[C@@H](CCCC)C(=O)N[C@@H](CC(C)C)C(=O)N[C@H](C(=O)NCC(=O)N[C@@H](CC(=O)O)C(=O)N[C@@H](CC(=O)NCCCOCCOCCOCCCNC(=O)CC[C@H](NC(=O)CCCCCCCCCCCCCCCCCCC(=O)O)C(=O)O)C(=O)O)CSCC(=O)N[C@@H](Cc2ccc(O)cc2)C(=O)N(C)[C@@H](C)C(=O)N[C@@H](CC(N)=O)C(=O)N2CCC[C@H]2C(=O)N[C@@H](CN)C(=O)N[C@@H](CC(C)C)C(=O)N2C[C@H](O)CC2C(=O)N[C@@H](Cc2c[nH]c3ccccc23)C(=O)N[C@@H](CCN)C(=O)N[C@@H](Cc2cn(CC(=O)O)c3ccccc23)C(=O)N1C (stereo partly drawn) [Example 11250] ({CH2CO}-Y[NMeA]NP[Dap]L[ξPro(4R-OH)]W[Dab][Trp(1-CH2COOH)][NMeNle][NMeNle]LCGDD(X12)-OH; thioether N-14) | 0.3 to 9.9 nM |
| CCCCCCCCCCCCCCCC(=O)NCCCC[C@H](NC(=O)[C@H](CO)NC(=O)CNC(=O)[C@H](CO)NC(=O)CNC(=O)[C@@H]1CSCC(=O)N[C@@H](Cc2ccc(O)cc2)C(=O)N(C)[C@@H](C)C(=O)N[C@@H](CC(N)=O)C(=O)N2CCC[C@H]2C(=O)N[C@@H](CCN)C(=O)N[C@@H](CC(C)C)C(=O)N2C[C@H](O)C[C@H]2C(=O)N[C@@H](Cc2c[nH]c3ccccc23)C(=O)N[C@@H](CO)C(=O)N[C@@H](Cc2c[nH]c3ccccc23)C(=O)N(C)[C@@H](CCCC)C(=O)N(C)[C@@H](CCCC)C(=O)N[C@@H](CCCNC(=N)N)C(=O)N1)C(N)=O [Example 11023] ({CH2CO}-Y[NMeA]NP[Dab]L[Hyp]WSW[NMeNle][NMeNle]RCGSGSK(Palmitoyl)-NH2; thioether N-14) | 100 to 1600 nM |
| CCCC[C@H]1C(=O)N(C)[C@@H](CCCC)C(=O)N[C@@H](CC(C)C)C(=O)N[C@H](C(=O)NCC(=O)NCC(=O)NCCCCCCCCCCC(=O)O)CSCC(=O)N[C@@H](Cc2ccc(O)cc2)C(=O)N(C)[C@@H](C)C(=O)N[C@@H](CC(N)=O)C(=O)N2CCC[C@H]2C(=O)N[C@@H](Cc2cnc[nH]2)C(=O)N[C@@H](CCC(=O)O)C(=O)N2C[C@H](O)C[C@H]2C(=O)N[C@@H](Cc2c[nH]c3ccccc23)C(=O)N[C@@H](CCN)C(=O)N[C@@H](CC2=CC(CC(=O)O)c3ccccc32)C(=O)N1C (stereo partly shown) [Example 11078] ({CH2CO}-Y[NMeA]NPHE[Hyp]W[Dab][Ala(1-CH2COOH-inden-3-yl)][NMeNle][NMeNle]LCGG[Aun]-OH; thioether N-14) | 0.3 to 9.9 nM |
| C#CC[C@H](NC(=O)CNC(=O)[C@@H]1CSCC(=O)N[C@@H](Cc2ccc(O)cc2)C(=O)N2CCCC[C@H]2C(=O)N[C@@H](CC(N)=O)C(=O)N2CCC[C@H]2C(=O)N[C@@H](CN)C(=O)N[C@@H](CC(C)C)C(=O)N2C[C@H](O)C[C@H]2C(=O)N[C@@H](Cc2c[nH]c3ccccc23)C(=O)N[C@@H](CCN)C(=O)N[C@@H](Cc2cn(CC(=O)O)c3ccccc23)C(=O)N(C)[C@@H](CCCC)C(=O)N(C)[C@@H](CCCC)C(=O)N[C@@H](CC(C)C)C(=O)N1)C(=O)O [INT130AI] ({CH2CO}-Y[Pip]NP[Dap]L[Hyp]W[Dab][Trp(1-CH2COOH)][NMeNle][NMeNle]LCG[Pra]-OH; thioether N-14) | 0.3 to 9.9 nM |

Other lines, results leading:

| IC50 | SMILES |
| --- | --- |
| 10 to 99 nM | CCCC[C@H]1C(=O)N(C)[C@@H](CCCC)C(=O)N[C@@H](CC(C)C)C(=O)N[C@H](C(=O)NCCCCCCCCCCC(=O)O)CSCC(=O)N[C@@H](Cc2ccc(O)cc2)C(=O)N(C)[C@@H](C)C(=O)N[C@@H](CC(N)=O)C(=O)N2CCC[C@H]2C(=O)N[C@@H](CO)C(=O)N[C@@H](CCC(N)=O)C(=O)N2C[C@H](O)C[C@H]2C(=O)N[C@@H](Cc2c[nH]c3ccccc23)C(=O)N[C@@H](CO)C(=O)N[C@@H](Cc2cn(CC(=O)O)c3ccccc23)C(=O)N1C [Example 11082] ({CH2CO}-Y[NMeA]NPSQ[Hyp]WS[Trp(1-CH2COOH)][NMeNle][NMeNle]LC[Aun]-OH; thioether N-14) |
| 0.3 to 9.9 nM | CCCC[C@H]1C(=O)N(C)[C@@H](CCCC)C(=O)N[C@@H](CC(C)C)C(=O)N[C@H](C(=O)NCC(=O)N[C@@H](CC(=O)O)C(=O)NCCCOCCOCCOCCCNC(=O)CC[C@H](NC(=O)CCCCCCCCCCCCCCCCC(=O)O)C(=O)O)CSCC(=O)N[C@@H](Cc2ccc(O)cc2)C(=O)N(C)[C@@H](C)C(=O)N[C@@H](CC(N)=O)C(=O)N2CCC[C@H]2C(=O)N[C@@H](CN)C(=O)N[C@@H](CC(C)C)C(=O)N2C[C@H](O)C[C@H]2C(=O)N[C@@H](Cc2c[nH]c3ccccc23)C(=O)N[C@@H](CCN)C(=O)N[C@@H](Cc2cn(CC(=O)O)c3ccccc23)C(=O)N1C [Example 11224] ({CH2CO}-Y[NMeA]NP[Dap]L[Hyp]W[Dab][Trp(1-CH2COOH)][NMeNle][NMeNle]LCGD-X6; thioether N-14) |
| 10 to 99 nM | CCCCCCCC[C@H](NC(=O)CNC(=O)CNC(=O)CNC(=O)[C@@H]1CSCC(=O)N[C@@H](Cc2ccc(O)cc2)C(=O)N(C)[C@@H](C)C(=O)N[C@@H](CC(N)=O)C(=O)N2CCC[C@H]2C(=O)N[C@@H](CN)C(=O)N[C@@H](CC(C)C)C(=O)N2C[C@H](O)C[C@H]2C(=O)N[C@@H](Cc2c[nH]c3ccccc23)C(=O)N[C@@H](CCN)C(=O)N[C@@H](Cc2cn(CC(=O)O)c3ccccc23)C(=O)N(C)[C@@H](CCCC)C(=O)N(C)[C@@H](CCCC)C(=O)N[C@@H](CC(C)C)C(=O)N1)C(=O)O [Example 11103] ({CH2CO}-Y[NMeA]NP[Dap]L[Hyp]W[Dab][Trp(1-CH2COOH)][NMeNle][NMeNle]LCGGG[Gly(octyl)]-OH; thioether N-14) |
| 10 to 99 nM | CCCCCCCCCCCCCC(=O)NCc1cn(CC[C@H](NC(=O)CNC(=O)[C@@H]2CSCC(=O)N[C@@H](Cc3ccc(O)cc3)C(=O)N(C)[C@@H](C)C(=O)N[C@@H](CC(N)=O)C(=O)N3CCC[C@H]3C(=O)N[C@@H](CN)C(=O)N[C@@H](CC(C)C)C(=O)N3C[C@H](O)C[C@H]3C(=O)N[C@@H](Cc3c[nH]c4ccccc34)C(=O)N[C@@H](CO)C(=O)N[C@@H](Cc3csc4ccccc34)C(=O)N(C)[C@@H](CCCC)C(=O)N(C)[C@@H](CCCC)C(=O)N[C@@H](CCCNC(=N)N)C(=O)N2)C(N)=O)nn1 [Example 13051] |
| 100 to 1600 nM | CCCC[C@H]1C(=O)N(C)[C@@H](CCCC)C(=O)N[C@@H](CC(C)C)C(=O)N[C@@H](C(=O)N[C@@H](CC(=O)O)C(=O)N[C@@H](CC(=O)NCCCOCCOCCOCCCNC(=O)C[C@H](NC(=O)CCCCCCCCCCCCCCC(=O)O)C(=O)O)C(=O)O)CSCC(=O)N[C@@H](Cc2ccc(O)cc2)C(=O)N(C)[C@@H](C)C(=O)N[C@@H](CC(N)=O)C(=O)N2CCC[C@@H]2C(=O)N[C@@H](CN)C(=O)N[C@@H](CC(C)C)C(=O)N2C[C@@H](O)CC2C(=O)N[C@@H](Cc2c[nH]c3ccccc23)C(=O)N[C@@H](CCN)C(=O)N[C@@H](Cc2cn(CC(=O)O)c3ccccc23)C(=O)N1C (stereo partly shown) [Example 11244] ({CH2CO}-Y[NMeA]N[dP][Dap]L[X19]W[Dab][Trp(1-CH2COOH)][NMeNle][NMeNle]L[dC]DD(X18)-OH; thioether N-14) |
